Test system: 252836-082-R-J2-PDC tumor spheroids, viability
Assay: Anticancer human tumor 252836-082-R-J2-PDC patient-derived head and neck squamous cell carcinoma cell line growth inhibition [PI3K]
Details: spheroids with HUVEC and MSC; for IC50: curve of first compound; for viability, T/C: stronger effect = lower value
Procedure, shortened: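 Tumor cells grown as multi-cell spheroids with HUVEC endothelial cells and MSC fibroblast-like stroma were treated with targeted agents combined with inavolisib, alpelisib, duvelisib or copanlisib. Doses fell in half-log steps from near clinical Cmax, else from 10 microM. Viability was measured.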

[1] = second compound 0.00316 µM, first compound 0.0316 µM
[2] = second compound 0.00316 µM, first compound 0.1 µM
[3] = second compound 0.01 µM, first compound 0.0316 µM
[4] = second compound 0.01 µM, first compound 0.1 µM
[5] = second compound 0.0316 µM, first compound 0.0316 µM
[6] = second compound 0.0316 µM, first compound 0.1 µM
[7] = second compound 0.1 µM, first compound 0.0316 µM
[8] = second compound 0.1 µM, first compound 0.1 µM
[9] = second compound 0.316 µM, first compound 0.0316 µM
[10] = second compound 0.316 µM, first compound 0.1 µM
[11] = second compound 1 µM, first compound 0.0316 µM
[12] = second compound 1 µM, first compound 0.1 µM
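Note: spheroids exposed to agents for seven days before readout.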
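Throughout, for viability, T/C: percent of vehicle DMSO control viability so 100% = untreated growth.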

Molecule CC(C)n1nc(-c2ccc3oc(N)nc3c2)c2c(N)ncnc21 + CC(Nc1ccc2c(c1)OCCn1cc(N3C(=O)OCC3C(F)F)nc1-2)C(N)=O has an IC50 (second compound 0.00316 µM) of 0.0369 µM, an IC50 (second compound 0.01 µM) of 0.0269 µM and an IC50 (second compound 0.0316 µM) of 0.0224 µM. The IC50 (second compound 0.1 µM) was 0.00942 µM, the IC50 (second compound 0.316 µM) was 0.00407 µM and the IC50 (second compound 1 µM) was under 0.000316 µM. It also gave a viability, T/C (second compound 0.00316 µM, first compound 0.000316 µM) of 108%, a viability, T/C (second compound 0.00316 µM, first compound 0.001 µM) of 81.8% and a viability, T/C (second compound 0.00316 µM, first compound 0.00316 µM) of 79%. It also gave a viability, T/C (second compound 0.00316 µM, first compound 0.01 µM) of 86%, a viability, T/C [1] of 51.1% and a viability, T/C [2] of 21.9%. For the same molecule, the viability, T/C (second compound 0.01 µM, first compound 0.000316 µM) was 94%, the viability, T/C (second compound 0.01 µM, first compound 0.001 µM) was 81.1% and the viability, T/C (second compound 0.01 µM, first compound 0.00316 µM) was 73.6%. It also gave a viability, T/C (second compound 0.01 µM, first compound 0.01 µM) of 69.4%, a viability, T/C [3] of 47.7% and a viability, T/C [4] of 21.3%. It also gave a viability, T/C (second compound 0.0316 µM, first compound 0.000316 µM) of 86.2%, a viability, T/C (second compound 0.0316 µM, first compound 0.001 µM) of 77.4% and a viability, T/C (second compound 0.0316 µM, first compound 0.00316 µM) of 80.7%. For the same molecule, the viability, T/C (second compound 0.0316 µM, first compound 0.01 µM) was 61.7%, the viability, T/C [5] was 44.8% and the viability, T/C [6] was 19.4%. For the same molecule, the viability, T/C (second compound 0.1 µM, first compound 0.000316 µM) was 78.2%, the viability, T/C (second compound 0.1 µM, first compound 0.001 µM) was 65.1% and the viability, T/C (second compound 0.1 µM, first compound 0.00316 µM) was 59.5%. It also gave a viability, T/C (second compound 0.1 µM, first compound 0.01 µM) of 52.5%, a viability, T/C [7] of 35.2% and a viability, T/C [8] of 15.9%. It also gave a viability, T/C (second compound 0.316 µM, first compound 0.000316 µM) of 55.1%, a viability, T/C (second compound 0.316 µM, first compound 0.001 µM) of 52.3% and a viability, T/C (second compound 0.316 µM, first compound 0.00316 µM) of 56.6%. It also gave a viability, T/C (second compound 0.316 µM, first compound 0.01 µM) of 40%, a viability, T/C [9] of 28.9% and a viability, T/C [10] of 16.6%. It also gave a viability, T/C (second compound 1 µM, first compound 0.000316 µM) of 46.4%, a viability, T/C (second compound 1 µM, first compound 0.001 µM) of 52.5% and a viability, T/C (second compound 1 µM, first compound 0.00316 µM) of 42.4%. The viability, T/C (second compound 1 µM, first compound 0.01 µM) was 37.8%, the viability, T/C [11] was 26.6% and the viability, T/C [12] was 11.9%.
CC1(C)CCC(CN2CCN(c3ccc(C(=O)NS(=O)(=O)c4ccc(NCC5CCOCC5)c([N+](=O)[O-])c4)c(Oc4cnc5[nH]ccc5c4)c3)CC2)=C(c2ccc(Cl)cc2)C1 + CC(Nc1ccc2c(c1)OCCn1cc(N3C(=O)OCC3C(F)F)nc1-2)C(N)=O was tested, and the IC50 (second compound 0.00316 µM) was 5.66 µM, the IC50 (second compound 0.01 µM) was 5.49 µM and the IC50 (second compound 0.0316 µM) was 5 µM. The IC50 (second compound 0.1 µM) was 3.92 µM, the IC50 (second compound 0.316 µM) was 3.46 µM and the IC50 (second compound 1 µM) was under 0.0316 µM. It also gave a viability, T/C [1] of 95.4%, a viability, T/C [2] of 81.6% and a viability, T/C (second compound 0.00316 µM, first compound 0.316 µM) of 93.3%. It also gave a viability, T/C (second compound 0.00316 µM, first compound 1 µM) of 101%, a viability, T/C (second compound 0.00316 µM, first compound 3.16 µM) of 99% and a viability, T/C (second compound 0.00316 µM, first compound 10 µM) of 6.79%. The viability, T/C [3] was 98.6%, the viability, T/C [4] was 87% and the viability, T/C (second compound 0.01 µM, first compound 0.316 µM) was 90.1%. The viability, T/C (second compound 0.01 µM, first compound 1 µM) was 90.9%, the viability, T/C (second compound 0.01 µM, first compound 3.16 µM) was 84.7% and the viability, T/C (second compound 0.01 µM, first compound 10 µM) was 12.2%. The viability, T/C [5] was 77.6%, the viability, T/C [6] was 83.8% and the viability, T/C (second compound 0.0316 µM, first compound 0.316 µM) was 76.5%. The viability, T/C (second compound 0.0316 µM, first compound 1 µM) was 68.9%, the viability, T/C (second compound 0.0316 µM, first compound 3.16 µM) was 90.1% and the viability, T/C (second compound 0.0316 µM, first compound 10 µM) was 5.56%. It also gave a viability, T/C [7] of 78.7%, a viability, T/C [8] of 64.9% and a viability, T/C (second compound 0.1 µM, first compound 0.316 µM) of 66.1%. For the same molecule, the viability, T/C (second compound 0.1 µM, first compound 1 µM) was 73%, the viability, T/C (second compound 0.1 µM, first compound 3.16 µM) was 59.8% and the viability, T/C (second compound 0.1 µM, first compound 10 µM) was 4.08%. It also gave a viability, T/C [9] of 70.8%, a viability, T/C [10] of 55.3% and a viability, T/C (second compound 0.316 µM, first compound 0.316 µM) of 54.3%. The viability, T/C (second compound 0.316 µM, first compound 1 µM) was 56.4%, the viability, T/C (second compound 0.316 µM, first compound 3.16 µM) was 54.3% and the viability, T/C (second compound 0.316 µM, first compound 10 µM) was 6.25%. For the same molecule, the viability, T/C [11] was 47.5%, the viability, T/C [12] was 49.6% and the viability, T/C (second compound 1 µM, first compound 0.316 µM) was 49.7%. For the same molecule, the viability, T/C (second compound 1 µM, first compound 1 µM) was 47.9%, the viability, T/C (second compound 1 µM, first compound 3.16 µM) was 39.7% and the viability, T/C (second compound 1 µM, first compound 10 µM) was 15.7%.

Reference: PubChem BioAssay AID1963985 (Molecular Pharmacology Branch, DTP, NCI, 2024)
